Experimental data published in US10501464B2, “7-oxo-6-(sulfooxy)-1,6-diazabicyclo[3.2.1]octane-2-carboxamide containing compounds and their use in treating bacterial infections” (WOCKHARDT LIMITED, priority 2015, dated 2019).
Where a name gives a salt, the structure may show the parent alone. Read-outs that look alike come from different tables or passages of the source.

Legend:
Assay in all cases: Antibacterial activity, MIC by agar dilution (CLSI)
Format in all cases: cell-based
K. pneumoniae H 521 = conditions: compound tested alone
Description: (§1) The biological activity of representative compounds according to the invention against various bacterial strains was investigated. In a typical study, overnight grown bacterial cultures were diluted appropriately and inoculated on the agar media containing doubling dilutions of the test compounds. Observations for growth or no growth was performed after 16-20 hours of incubation at 35±2° C. in the ambient air. The overall procedure was performed as per Clinical and Laboratory Standards Institute (CLSI) recommendations, (Clinical and Laboratory Standards Institute (CLSI), Performance Standards for Antimicrobial Susceptibility Testing, 20th Informational Supplement, M07-A9, Volume 32, No. 2, 2012). Molten Mueller Hinton Agar (BD, USA) containing serial dilutions of each antibacterial agent were poured on to the plates and allowed to solidify. Appropriate suspensions from the freshly grown cultures were prepared in normal saline so that about 10^4CFU/spot of the organism was delivered on to the drug containing agar plates using automated multipoint inoculator (Mast, UK). The plates were incubated in Biochemical oxygen demand (BOD) incubator at 37° C. for 18 hours and then examined for growth.
(§2) Method for the determination of MIC: The Minimum Inhibitory Concentration (MIC) determination for the combinations was carried out in Muller Hinton Agar (MHA) (BD, USA) according to Clinical and Laboratory Standards Institute (CLSI) recommendations, (Clinical and Laboratory Standards Institute (CLSI), Performance Standards for Antimicrobial Susceptibility Testing, 20th Informational Supplement, M 100-S20, Volume 30, No. 1, 2010). In short, the test strains were adjusted to deliver about 10^4CFU per spot with a multipoint inoculator (Applied Quality Services, UK). The plates were poured with MHA containing doubling concentration range of representative compounds according to present invention. The plates were inoculated and were incubated at 35° C. for 18 hour. […] The Table 2 depicts the antibacterial activity profile of compounds according to present invention against various multidrug resistant bacterial strains.

E. coli M 36 = conditions: compound tested alone
Description: as §1, §2

P. mirabilis S 137B = conditions: compound tested alone
Description: as §1, §2

E. coli 13351 = conditions: compound tested alone
Description: as §1, §2

E. coli M 50 = conditions: compound tested alone
Description: as §1, §2

E. coli 13353 = conditions: compound tested alone
Description: as §1, §2

E. coli M 138 = conditions: compound tested alone
Description: as §1, §2

[1] = test system: K. pneumoniae ATCC 700603
Description: as §1, §2

E. coli 13352 = conditions: compound tested alone
Description: as §1, §2

E. coli 7 MP = conditions: compound tested alone
Description: as §1, §2

K. pneumoniae H 523 = conditions: compound tested alone
Description: as §1, §2

K. pneumoniae H 525 = conditions: compound tested alone
Description: as §1, §2

E. coli M 49 = conditions: compound tested alone
Description: as §1, §2

K. pneumoniae H 522 = conditions: compound tested alone
Description: as §1, §2

[2] = Klebsiella pneumoniae, H521, K. pneumoniae H 521, read-out: MIC
[3] = Escherichia coli, M36, E. coli M 36, read-out: MIC
[4] = Proteus mirabilis, S137B, read-out: MIC
[5] = Escherichia coli, 13351, E. coli 13351, read-out: MIC
[6] = Escherichia coli, M50, E. coli M 50, read-out: MIC
[7] = Escherichia coli, 13353, E. coli 13353, read-out: MIC
[8] = Escherichia coli, M138, E. coli M 138, read-out: MIC
[9] = Klebsiella pneumoniae, ATCC700603, compound tested alone, read-out: MIC
[10] = Escherichia coli, 13352, E. coli 13352, read-out: MIC
[11] = Escherichia coli, 7MP, read-out: MIC
[12] = Klebsiella pneumoniae, H523, K. pneumoniae H 523, read-out: MIC
[13] = Klebsiella pneumoniae, H525, K. pneumoniae H 525, read-out: MIC
[14] = Escherichia coli, M49, E. coli M 49, read-out: MIC
[15] = Klebsiella pneumoniae, H522, K. pneumoniae H 522, read-out: MIC

SMILES	MIC (K. pneumoniae H 521; [2])	MIC (E. coli M 36; [3])	MIC (P. mirabilis S 137B; [4])	MIC (E. coli 13351; [5])	MIC (E. coli M 50; [6])	MIC (E. coli 13353; [7])	MIC (E. coli M 138; [8])	MIC [1, 9]	MIC (E. coli 13352; [10])	MIC (E. coli 7 MP; [11])	MIC (K. pneumoniae H 523; [12])	MIC (K. pneumoniae H 525; [13])	MIC (E. coli M 49; [14])	MIC (K. pneumoniae H 522; [15])	further results
O=C(NOCC1C[C@@H](N2CCNCC2)CN1)[C@@H]1CC[C@@H]2CN1C(=O)N2OS(=O)(=O)O (some centres unmarked) [Example 20]	8 µg/mL	4 µg/mL		8 µg/mL	8 µg/mL	8 µg/mL	4 µg/mL	> 32 µg/mL	16 µg/mL	16 µg/mL	8 µg/mL	8 µg/mL	16 µg/mL	8 µg/mL	
O=C(NOCC1C[C@H](N2CCOCC2)CN1)[C@@H]1CC[C@@H]2CN1C(=O)N2OS(=O)(=O)O (some centres unmarked) [Example 17]	8 µg/mL	4 µg/mL		8 µg/mL	8 µg/mL	4 µg/mL	4 µg/mL	> 32 µg/mL	8 µg/mL	16 µg/mL	8 µg/mL	8 µg/mL	16 µg/mL	8 µg/mL	
CN1CCN([C@H]2CNC(CONC(=O)[C@@H]3CC[C@@H]4CN3C(=O)N4OS(=O)(=O)O)C2)CC1 (some centres unmarked) [Example 22]															MIC (K. pneumoniae H 521; K. pneumoniae H 521): 8 µg/mL; MIC (E. coli M 36; E. coli M 36): 4 µg/mL; MIC (E. coli 13351; E. coli 13351): 8 µg/mL; MIC (E. coli M 50; E. coli M 50): 8 µg/mL; MIC (E. coli 13353; E. coli 13353): 4 µg/mL; MIC (E. coli M 138; E. coli M 138): 8 µg/mL; MIC ([1]; compound tested alone): >32 µg/mL; MIC (E. coli 13352; E. coli 13352): 16 µg/mL; MIC (E. coli 7 MP): 16 µg/mL; MIC (K. pneumoniae H 523; K. pneumoniae H 523): 8 µg/mL; MIC (K. pneumoniae H 525; K. pneumoniae H 525): 8 µg/mL; MIC (E. coli M 49; E. coli M 49): 8 µg/mL; MIC (K. pneumoniae H 522; K. pneumoniae H 522): 8 µg/mL
CN1CCN([C@H]2CNC(CONC(=O)[C@@H]3CC[C@@H]4CN3C(=O)N4OS(=O)(=O)O)C2)CC1 (some centres unmarked) [Example 21]	8 µg/mL	4 µg/mL		8 µg/mL	8 µg/mL	4 µg/mL	4 µg/mL	> 32 µg/mL	8 µg/mL	16 µg/mL	4 µg/mL	8 µg/mL	16 µg/mL	4 µg/mL	
O=C(NNC(=O)[C@@H]1CC[C@@H]2CN1C(=O)N2OS(=O)(=O)O)C1C[C@H](n2cccn2)CN1 (some centres unmarked) [Example 27]	4 µg/mL	1 µg/mL	> 32 µg/mL	1 µg/mL	1 µg/mL	1 µg/mL	2 µg/mL	> 32 µg/mL	1 µg/mL	8 µg/mL	4 µg/mL	4 µg/mL	> 32 µg/mL	4 µg/mL	
O=C(NNC(=O)[C@@H]1CC[C@@H]2CN1C(=O)N2OS(=O)(=O)O)[C@@H]1C[C@@H](n2cccn2)CN1 [Example 32]															MIC (K. pneumoniae H 521; K. pneumoniae H 521): 8 µg/mL; MIC (E. coli M 36; E. coli M 36): 4 µg/mL; MIC (P. mirabilis S 137B): >32 µg/mL; MIC (E. coli 13351; E. coli 13351): 4 µg/mL; MIC (E. coli M 50; E. coli M 50): 4 µg/mL; MIC (E. coli 13353; E. coli 13353): 4 µg/mL; MIC (E. coli M 138; E. coli M 138): 4 µg/mL; MIC ([1]; compound tested alone): >32 µg/mL; MIC (E. coli 13352; E. coli 13352): 4 µg/mL; MIC (E. coli 7 MP): 16 µg/mL; MIC (K. pneumoniae H 523; K. pneumoniae H 523): 8 µg/mL; MIC (K. pneumoniae H 525; K. pneumoniae H 525): 8 µg/mL; MIC (E. coli M 49; E. coli M 49): 32 µg/mL; MIC (K. pneumoniae H 522; K. pneumoniae H 522): 8 µg/mL
O=C(NNC(=O)[C@@H]1CC[C@@H]2CN1C(=O)N2OS(=O)(=O)O)C1C[C@H](n2ccnc2)CN1 (some centres unmarked) [Example 34]															MIC (K. pneumoniae H 521; K. pneumoniae H 521): 8 µg/mL; MIC (E. coli M 36; E. coli M 36): 4 µg/mL; MIC (P. mirabilis S 137B): >32 µg/mL; MIC (E. coli 13351; E. coli 13351): 4 µg/mL; MIC (E. coli M 50; E. coli M 50): 8 µg/mL; MIC (E. coli 13353; E. coli 13353): 4 µg/mL; MIC ([1]; compound tested alone): >32 µg/mL; MIC (E. coli 13352; E. coli 13352): 8 µg/mL; MIC (E. coli 7 MP): 16 µg/mL; MIC (K. pneumoniae H 523; K. pneumoniae H 523): 8 µg/mL; MIC (K. pneumoniae H 525; K. pneumoniae H 525): 8 µg/mL; MIC (E. coli M 49; E. coli M 49): 4 µg/mL; MIC (K. pneumoniae H 522; K. pneumoniae H 522): 8 µg/mL
O=C(NOCC1C[C@@H](N2CCCCC2)CN1)[C@@H]1CC[C@@H]2CN1C(=O)N2OS(=O)(=O)O (some centres unmarked) [Example 19]	8 µg/mL	8 µg/mL		8 µg/mL	8 µg/mL	4 µg/mL	8 µg/mL	> 32 µg/mL	8 µg/mL	> 32 µg/mL	8 µg/mL	8 µg/mL	32 µg/mL	8 µg/mL	

Further compounds by falling MIC (K. pneumoniae H 521; [2]), results first:

MIC (K. pneumoniae H 521; [2])	MIC (E. coli M 36; [3])	MIC (P. mirabilis S 137B; [4])	MIC (E. coli 13351; [5])	MIC (E. coli M 50; [6])	MIC (E. coli 13353; [7])	MIC (E. coli M 138; [8])	MIC [1, 9]	MIC (E. coli 13352; [10])	MIC (E. coli 7 MP; [11])	MIC (K. pneumoniae H 523; [12])	MIC (K. pneumoniae H 525; [13])	MIC (E. coli M 49; [14])	MIC (K. pneumoniae H 522; [15])	SMILES	further results
4 µg/mL	1 µg/mL	> 32 µg/mL	1 µg/mL	1 µg/mL	1 µg/mL	1 µg/mL	> 32 µg/mL	1 µg/mL	2 µg/mL	4 µg/mL	4 µg/mL	8 µg/mL	4 µg/mL	O=C(NOC[C@@H]1C[C@H](n2nccn2)CN1)[C@@H]1CC[C@@H]2CN1C(=O)N2OS(=O)(=O)O [Example 5]	
2 µg/mL	2 µg/mL		2 µg/mL	2 µg/mL	1 µg/mL	2 µg/mL	> 32 µg/mL	2 µg/mL	4 µg/mL	2 µg/mL	2 µg/mL	16 µg/mL	2 µg/mL	O=C(NOCC1C[C@H](N2CCCCC2)CN1)[C@@H]1CC[C@@H]2CN1C(=O)N2OS(=O)(=O)O (some centres unmarked) [Example 18]	
2 µg/mL	1 µg/mL	> 32 µg/mL	2 µg/mL	1 µg/mL	1 µg/mL	1 µg/mL	> 32 µg/mL	2 µg/mL	2 µg/mL	2 µg/mL	2 µg/mL	4 µg/mL	2 µg/mL	O=C(NOC[C@@H]1C[C@H](n2cncn2)CN1)[C@@H]1CC[C@@H]2CN1C(=O)N2OS(=O)(=O)O [Example 9]	
2 µg/mL	0.5 µg/mL	> 32 µg/mL	1 µg/mL	1 µg/mL	0.5 µg/mL	1 µg/mL	> 32 µg/mL	1 µg/mL	2 µg/mL	2 µg/mL	2 µg/mL	4 µg/mL	2 µg/mL	O=C(NOC[C@H]1C[C@H](n2ccnc2)CN1)[C@@H]1CC[C@@H]2CN1C(=O)N2OS(=O)(=O)O [Example 7]	
1 µg/mL	1 µg/mL		1 µg/mL	1 µg/mL	1 µg/mL	1 µg/mL	> 32 µg/mL	1 µg/mL	2 µg/mL	1 µg/mL	1 µg/mL	4 µg/mL	1 µg/mL	O=C(NOC[C@H]1C[C@H](N2CCOCC2)CN1)[C@@H]1CC[C@@H]2CN1C(=O)N2OS(=O)(=O)O [Example 2, Trifluoro acetic acid salt of (2S,5R)-N-{[(2R,4S)-4-(morpholin-4-yl)pyrrolidin-2-yl]methoxy}-7-oxo-6-(sulfooxy)-1,6-diazabicyclo[3.2.1]octane-2-carboxamide]	
1 µg/mL	0.5 µg/mL	> 32 µg/mL	1 µg/mL	1 µg/mL	0.5 µg/mL	1 µg/mL	> 32 µg/mL	1 µg/mL	2 µg/mL	1 µg/mL	1 µg/mL	4 µg/mL	1 µg/mL	O=C(NOC[C@@H]1CC(n2cccn2)CN1)[C@@H]1CC[C@@H]2CN1C(=O)N2OS(=O)(=O)O (some centres unmarked) [Example 8]	
